Eight compounds from patent US20230143604A1, “QW DOSING OF GIP RECEPTOR AGONIST PEPTIDE COMPOUNDS AND USES THEREOF” (TAKEDA PHARMACEUTICAL COMPANY LIMITED, priority 2020, published 2023) can be followed below.

Starred links: 1 amine or outer side, 2 acyl side, 3 side chain; linkers in the order of their positions; H or OH if unused. Non-standard residues stand in square brackets, D forms with d. Residues, ends and D or L forms follow the SMILES beside them. Groups on a side chain read outwards from the residue. *: point of attachment. C17 diacid = O=C(O)CCCCCCCCCCCCCCCC(=O)*; γGlu = O=C(O)[C@H](CCC(=O)[*:2])N[*:1]; NMeY = CN[C@@H](Cc1ccc(O)cc1)C(=O)O; AEEA = NCCOCCOCC(=O)O; Aib = CC(C)(N)C(=O)O

The nature of the first series: physchem. The note with it: pH 7.4, aqueous buffer. The method, boiled down: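 3 mg of peptide treated with 100 μL portions of 200 mM phosphate buffer pH 7.4, sonicating/vortexing up to 1 min, with further buffer added until fully dissolved. Solubility then quantified by HPLC.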
The solubility is how much of the substance goes into solution per volume. A low value points to a poorly soluble substance. Compound `CC[C@H](C)[C@H](NC(=O)[C@H](CO)NC(=O)[C@H](Cc1ccc(O)cc1)NC(=O)[C@H](CC(=O)O)NC(=O)[C@H](CO)NC(=O)[C@@H](NC(=O)[C@H](Cc1ccccc1)NC(=O)[C@@H](NC(=O)CNC(=O)[C@H](CCC(=O)O)NC(=O)C(C)(C)NC(=O)[C@H](Cc1ccc(O)cc1)NC)[C@@H](C)O)[C@@H](C)CC)C(=O)N[C@@H](C)C(=O)N[C@@H](CCCCNC(=O)COCCOCCNC(=O)COCCOCCNC(=O)CC[C@H](NC(=O)CCCCCCCCCCCCCCCC(=O)O)C(=O)O)C(=O)N[C@@H](CC(=O)O)C(=O)N[C@@H](CCCNC(=N)N)C(=O)NC(C)(C)C(=O)N[C@@H](C)C(=O)N[C@@H](CCC(N)=O)C(=O)NC(C)(C)C(=O)N[C@@H](CC(N)=O)C(=O)N[C@@H](Cc1ccccc1)C(=O)N[C@H](C(=O)N[C@@H](CC(N)=O)C(=O)N[C@@H](Cc1c[nH]c2ccccc12)C(=O)N[C@@H](CC(C)C)C(=O)N[C@@H](CC(C)C)C(=O)N[C@@H](C)C(=O)N[C@@H](CCC(N)=O)C(=O)N[C@@H](CCCCN)C(=O)O)C(C)C` [Compound 255] (H-[NMeY][Aib]EGTFISDYSIAK([AEEA-AEEA-γGlu-C17 diacid])DR[Aib]AQ[Aib]NFVNWLLAQK-OH; C-terminus assumed) gave a solubility not below 10000 µg/mL.
Turning to `CC[C@H](C)[C@H](NC(=O)[C@H](CO)NC(=O)[C@H](Cc1ccc(O)cc1)NC(=O)[C@H](CC(=O)O)NC(=O)[C@H](CO)NC(=O)[C@@H](NC(=O)[C@H](Cc1ccccc1)NC(=O)[C@@H](NC(=O)CNC(=O)[C@H](CCC(=O)O)NC(=O)C(C)(C)NC(=O)[C@H](Cc1ccc(O)cc1)NC)[C@@H](C)O)[C@@H](C)CC)C(=O)N[C@@H](C)C(=O)N[C@@H](CC(C)C)C(=O)N[C@@H](CC(=O)O)C(=O)N[C@@H](CCCNC(=N)N)C(=O)NC(C)(C)C(=O)N[C@@H](CCCCNC(=O)COCCOCCNC(=O)COCCOCCNC(=O)CC[C@H](NC(=O)CC[C@H](NC(=O)CCCCCCCCCCCCCCCC(=O)O)C(=O)O)C(=O)O)C(=O)N[C@@H](CCC(N)=O)C(=O)NC(C)(C)C(=O)N[C@@H](CC(N)=O)C(=O)N[C@@H](Cc1ccccc1)C(=O)N[C@H](C(=O)N[C@@H](CC(N)=O)C(=O)N[C@@H](Cc1c[nH]c2ccccc12)C(=O)N[C@@H](CC(C)C)C(=O)N[C@@H](CC(C)C)C(=O)N[C@@H](C)C(=O)N[C@@H](CCC(N)=O)C(=O)N[C@@H](CCCNC(=N)N)C(N)=O)C(C)C` [Compound 256] (H-[NMeY][Aib]EGTFISDYSIALDR[Aib]K([AEEA-AEEA-γGlu-γGlu-C17 diacid])Q[Aib]NFVNWLLAQR-NH2), the solubility is not below 6000 µg/mL.
On the same count and under the same terms, then `CC[C@H](C)[C@H](NC(=O)[C@H](CO)NC(=O)[C@H](Cc1ccc(O)cc1)NC(=O)[C@H](CC(=O)O)NC(=O)[C@H](CO)NC(=O)[C@@H](NC(=O)[C@H](Cc1ccccc1)NC(=O)[C@@H](NC(=O)CNC(=O)[C@H](CCC(=O)O)NC(=O)C(C)(C)NC(=O)[C@H](Cc1ccc(O)cc1)NC)[C@@H](C)O)[C@@H](C)CC)C(=O)N[C@@H](C)C(=O)N[C@@H](CC(C)C)C(=O)N[C@@H](CC(=O)O)C(=O)N[C@@H](CCCNC(=N)N)C(=O)NC(C)(C)C(=O)N[C@@H](Cc1c[nH]cn1)C(=O)N[C@@H](CCC(N)=O)C(=O)NC(C)(C)C(=O)N[C@@H](CCCCNC(=O)COCCOCCNC(=O)COCCOCCNC(=O)CC[C@H](NC(=O)CC[C@H](NC(=O)CCCCCCCCCCCCCCCC(=O)O)C(=O)O)C(=O)O)C(=O)N[C@@H](Cc1ccccc1)C(=O)N[C@H](C(=O)N[C@@H](CC(N)=O)C(=O)N[C@@H](Cc1c[nH]c2ccccc12)C(=O)N[C@@H](CC(C)C)C(=O)N[C@@H](CC(C)C)C(=O)N[C@@H](C)C(=O)N[C@@H](CCC(N)=O)C(=O)N[C@@H](CCCNC(=N)N)C(N)=O)C(C)C` [Compound 257] (H-[NMeY][Aib]EGTFISDYSIALDR[Aib]HQ[Aib]K([AEEA-AEEA-γGlu-γGlu-C17 diacid])FVNWLLAQR-NH2), with not below 7500 µg/mL; and `CC[C@H](C)[C@H](NC(=O)[C@H](CO)NC(=O)[C@H](Cc1ccc(O)cc1)NC(=O)[C@H](CC(=O)O)NC(=O)[C@H](CO)NC(=O)[C@@H](NC(=O)[C@H](Cc1ccccc1)NC(=O)[C@@H](NC(=O)CNC(=O)[C@H](CCC(=O)O)NC(=O)C(C)(C)NC(=O)[C@H](Cc1ccc(O)cc1)NC)[C@@H](C)O)[C@@H](C)CC)C(=O)N[C@@H](C)C(=O)N[C@@H](CC(C)C)C(=O)N[C@@H](CC(=O)O)C(=O)N[C@@H](CCCNC(=N)N)C(=O)NC(C)(C)C(=O)N[C@@H](Cc1c[nH]cn1)C(=O)N[C@@H](CCC(N)=O)C(=O)NC(C)(C)C(=O)N[C@@H](CC(N)=O)C(=O)N[C@@H](Cc1ccccc1)C(=O)N[C@H](C(=O)N[C@@H](CC(N)=O)C(=O)N[C@@H](Cc1c[nH]c2ccccc12)C(=O)N[C@@H](CC(C)C)C(=O)N[C@@H](CC(C)C)C(=O)N[C@@H](C)C(=O)N[C@@H](CCCCNC(=O)COCCOCCNC(=O)COCCOCCNC(=O)CC[C@H](NC(=O)CC[C@H](NC(=O)CCCCCCCCCCCCCCCC(=O)O)C(=O)O)C(=O)O)C(=O)N[C@@H](CCCNC(=N)N)C(N)=O)C(C)C` [Compound 258] (H-[NMeY][Aib]EGTFISDYSIALDR[Aib]HQ[Aib]NFVNWLLAK([AEEA-AEEA-γGlu-γGlu-C17 diacid])R-NH2), with not below 6000 µg/mL.

Still in this series, the particulars now being: pH 7.4, aqueous buffer, pH 7.4 Phosphate Buffer - Solubility, 200 mM Phosphate buffer pH 7.4.
Regarding `CC[C@H](C)[C@H](NC(=O)[C@H](CO)NC(=O)[C@H](Cc1ccc(O)cc1)NC(=O)[C@H](CC(=O)O)NC(=O)[C@H](CO)NC(=O)[C@@H](NC(=O)[C@H](Cc1ccccc1)NC(=O)[C@@H](NC(=O)CNC(=O)[C@H](CCC(=O)O)NC(=O)C(C)(C)NC(=O)[C@H](Cc1ccc(O)cc1)NC)[C@@H](C)O)[C@@H](C)CC)C(=O)N[C@@H](C)C(=O)N[C@@H](CC(C)C)C(=O)N[C@@H](CC(=O)O)C(=O)N[C@@H](CCCNC(=N)N)C(=O)N[C@@H](CCCCNC(=O)CNC(=O)CNC(=O)CNC(=O)CNC(=O)CNC(=O)CCCCCCCCCCCCCCCC(=O)O)C(=O)N[C@@H](Cc1c[nH]cn1)C(=O)N[C@@H](CCC(N)=O)C(=O)NC(C)(C)C(=O)N[C@@H](CC(N)=O)C(=O)N[C@@H](Cc1ccccc1)C(=O)N[C@H](C(=O)N[C@@H](CC(N)=O)C(=O)N[C@@H](Cc1c[nH]c2ccccc12)C(=O)N[C@@H](CC(C)C)C(=O)N[C@@H](CC(C)C)C(=O)N[C@@H](C)C(=O)N[C@@H](CCC(N)=O)C(=O)N[C@@H](CCCNC(=N)N)C(=O)N1CCC[C@H]1C(=O)N[C@@H](CO)C(=O)N[C@@H](CO)C(=O)NCC(=O)N[C@@H](C)C(=O)N1CCC[C@H]1C(=O)N1CCC[C@H]1C(=O)N1CCC[C@H]1C(=O)N[C@@H](CO)C(=O)O)C(C)C` [Compound 259], the solubility was less than 6000 µg/mL.
Regarding `CC[C@H](C)[C@H](NC(=O)[C@H](CO)NC(=O)[C@H](Cc1ccc(O)cc1)NC(=O)[C@H](CC(=O)O)NC(=O)[C@H](CO)NC(=O)[C@@H](NC(=O)[C@H](Cc1ccccc1)NC(=O)[C@@H](NC(=O)CNC(=O)[C@H](CCC(=O)O)NC(=O)C(C)(C)NC(=O)[C@H](Cc1ccc(O)cc1)NC)[C@@H](C)O)[C@@H](C)CC)C(=O)N[C@@H](C)C(=O)N[C@@H](CCCCNC(=O)CNC(=O)CNC(=O)CNC(=O)CNC(=O)CNC(=O)CC[C@H](NC(=O)CCCCCCCCCCCCCCCC(=O)O)C(=O)O)C(=O)N[C@@H](CC(=O)O)C(=O)N[C@@H](CCCNC(=N)N)C(=O)NC(C)(C)C(=O)N[C@@H](C)C(=O)N[C@@H](CCC(N)=O)C(=O)NC(C)(C)C(=O)N[C@@H](CC(N)=O)C(=O)N[C@@H](Cc1ccccc1)C(=O)N[C@H](C(=O)N[C@@H](CC(N)=O)C(=O)N[C@@H](Cc1c[nH]c2ccccc12)C(=O)N[C@@H](CC(C)C)C(=O)N[C@@H](CC(C)C)C(=O)N[C@@H](C)C(=O)N[C@@H](CCC(N)=O)C(=O)N[C@@H](CCCNC(=N)N)C(=O)N1CCC[C@H]1C(=O)N[C@@H](CO)C(=O)N[C@@H](CO)C(=O)NCC(=O)N[C@@H](C)C(=O)N1CCC[C@H]1C(=O)N1CCC[C@H]1C(=O)N1CCC[C@H]1C(=O)N[C@@H](CO)C(N)=O)C(C)C` [Compound 260], the solubility was less than 6000 µg/mL.
The same measure, in the same setting: then `CC[C@H](C)[C@H](NC(=O)[C@H](Cc1ccccc1)NC(=O)[C@@H](NC(=O)CNC(=O)[C@H](CCC(=O)O)NC(=O)C(C)(C)NC(=O)[C@H](Cc1ccc(O)cc1)NC)[C@@H](C)O)C(=O)N[C@@H](CO)C(=O)N[C@@H](CC(=O)O)C(=O)N[C@@H](Cc1ccc(O)cc1)C(=O)N[C@@H](CO)C(=O)N[C@H](C(=O)NC(C)(C)C(=O)N[C@@H](CCCCNC(=O)CNC(=O)CNC(=O)CNC(=O)CNC(=O)CNC(=O)CC[C@H](NC(=O)CCCCCCCCCCCCCCCC(=O)O)C(=O)O)C(=O)N[C@@H](CC(=O)O)C(=O)N[C@@H](CCCNC(=N)N)C(=O)NC(C)(C)C(=O)N[C@@H](C)C(=O)N[C@@H](CCC(N)=O)C(=O)NC(C)(C)C(=O)N[C@@H](CC(N)=O)C(=O)N[C@@H](Cc1ccccc1)C(=O)N[C@H](C(=O)N[C@@H](CC(N)=O)C(=O)N[C@@H](Cc1c[nH]c2ccccc12)C(=O)N[C@@H](CC(C)C)C(=O)N[C@@H](CC(C)C)C(=O)N[C@@H](C)C(=O)N[C@@H](CCC(N)=O)C(=O)N[C@@H](CCCNC(=N)N)C(=O)N1CCC[C@H]1C(=O)N[C@@H](CO)C(=O)N[C@@H](CO)C(=O)NCC(=O)N[C@@H](C)C(=O)N1CCC[C@H]1C(=O)N1CCC[C@H]1C(=O)N1CCC[C@H]1C(=O)N[C@@H](CO)C(N)=O)C(C)C)[C@@H](C)CC` [Compound 261], with less than 6000 µg/mL; and `CC[C@H](C)[C@H](NC(=O)[C@H](Cc1ccccc1)NC(=O)[C@@H](NC(=O)CNC(=O)[C@H](CCC(=O)O)NC(=O)C(C)(C)NC(=O)[C@H](Cc1ccc(O)cc1)NC)[C@@H](C)O)C(=O)N[C@@H](CO)C(=O)N[C@@H](CC(=O)O)C(=O)N[C@@H](Cc1ccc(O)cc1)C(=O)N[C@@H](CO)C(=O)N[C@H](C(=O)NC(C)(C)C(=O)N[C@@H](CCCCNC(=O)CNC(=O)CNC(=O)CNC(=O)CNC(=O)CNC(=O)CC[C@H](NC(=O)CCCCCCCCCCCCCCCCC(=O)O)C(=O)O)C(=O)N[C@@H](CC(=O)O)C(=O)N[C@@H](CCCNC(=N)N)C(=O)NC(C)(C)C(=O)N[C@@H](C)C(=O)N[C@@H](CCC(N)=O)C(=O)NC(C)(C)C(=O)N[C@@H](CC(N)=O)C(=O)N[C@@H](Cc1ccccc1)C(=O)N[C@H](C(=O)N[C@@H](CC(N)=O)C(=O)N[C@@H](Cc1c[nH]c2ccccc12)C(=O)N[C@@H](CC(C)C)C(=O)N[C@@H](CC(C)C)C(=O)N[C@@H](C)C(=O)N[C@@H](CCC(N)=O)C(=O)N[C@@H](CCCNC(=N)N)C(=O)N1CCC[C@H]1C(=O)N[C@@H](CO)C(=O)N[C@@H](CO)C(=O)NCC(=O)N[C@@H](C)C(=O)N1CCC[C@H]1C(=O)N1CCC[C@H]1C(=O)N1CCC[C@H]1C(=O)N[C@@H](CO)C(N)=O)C(C)C)[C@@H](C)CC` [Compound 262], with less than 6000 µg/mL.
